Data: patent US7387779B2, “Anti-angiogenic proteins and fragments and methods of use thereof” (Beth Israel Deaconess Medical Center, priority 1998, dated 2008)

How the values were obtained:
[1] = tested on: C-PAE cells; test: Endothelial cell proliferation, methylene blue staining; type: cell-based, bovine; settings: for inhibition of endothelial cell proliferation by synthetic peptides: 10 μg/ml, 20% FCS
Method: A methylene blue staining test was also done. 3,100 cells were added to each well and treated as above, and cells were then counted using the method of Oliver et al. (Oliver, M. H. et al., 1989, J. Cell. Science 92:513-18). All wells were washed one time with […] of 1×PBS and the cells were fixed by adding […] of 10% formalin in neutral-buffered saline (Sigma Chemical Co., St. Louis, Mo., USA) for 30 minutes at room temperature. After formalin removal cells were stained with a solution of 1% methylene blue (Sigma Chemical Co.) in 0.01 M borate buffer (pH 8.5) for 30 minutes at room temperature. After removal of staining solution, the wells were washed 5 times with […] of 0.01 M borate buffer (pH 8.5). Methylene blue was extracted from the cells with […] of 0.1N HCi/ethanol (1:1 mixture) for 1 hour at room temperature. The amount of methylene blue staining was measured on a microplate reader (BioRad, Hercules, Calif., USA) using light absorbance at 655 nm wavelength.
In the methylene-blue staining method, 7000 cells were plated into each well of a 96-well plate, and treated as described above. Cells were then counted using the method of Oliver et al. (1989, J. Cell. Sci. 92:513-8). After 48 hours of treatment, all wells were washed with 100 μl of PBS, and the cells fixed with 10% formalin in neutral-buffered saline (Sigma Chemical Co., St. Louis, Mo., USA). The cells were then stained with 1% methylene blue (Sigma) in 0.01M borate buffer, pH 8.5. Wells were washed with 0.01M borate buffer, and the methylene blue extracted from the cells with 0.1N HCl/ethanol, and the absorbance measured in a microplate reader (Bio-Rad, Hercules, Calif., USA) at 655 nm. Polymyxin B (Sigma) at a final concentration of 5 μg/ml was used to inactivate endotoxin (Liu, S. et al., 1997, Clin. Biochem. 30:455-63).
Proliferation of endothelial cells (C-PAE cells) and WM-164 melanoma cells was assayed by methylene blue staining, as described above in Examples 25 and 34. The results are shown in FIGS. 33A and 33B, which are a pair of graphs showing the effect of increasing concentration (x-axis) of Tumstatin, Tum-1, Tum-2, Tum-3 and Tum-4 on the relative number (y-axis) of C-PAE cells (FIG. 33A) and WM-164 cells (FIG. 33B). […] Tum-4, however, did have anti-proliferative activity in this cell line. […] Only Tum-4 inhibited WM-164 melanoma cells.
For the proliferation assay, Canstatin, Can-1 and Can-2 soluble proteins (0.1-20.0 μg/ml) were added to the growth medium of proliferating C-PAE cells, which were stimulated with 10% FBS in DMEM, in addition to 5 ng/ml bFGF and 3 ng/ml VEGF. The results are shown in FIG. 40, which is a graph showing the effect of increasing concentrations of Canstatin (♦), Can-1 (▪) and Can-2 (▴) (x-axis) on the relative cell number (y-axis) of C-PAE cells. Each concentration of each protein was tested in quadruplicate. Bovine serum albumin (BSA) was used as a control treatment. Polymyxin B was used to control for endotoxin interference, and no differences were found between assays run with and without polymyxin B added to the medium. Cells were allowed to proliferate for 48 hours, and were then fixed, stained and the density read with a Bio-Rad plate reader (Bio-Rad, Hercules, Calif., USA). Canstatin and Can-1 both caused dose-dependent decreases in the percent cell number, and both reduced the number of cells by 80% at concentrations of 5 μg/ml and higher.
An endothelial cell proliferation assay was used to compare the activity of Tumstatin and some of the deletion mutants. Recombinant Tumstatin (28 kDa), Tumstatin-44-131 (12 kDa) and T3 peptide were used in a methylene blue proliferation assay in equimolar concentrations.

[2] = tested on: PC3 tumor xenografts; test: PC3 human prostate tumor xenograft (Example 58); type: in vivo, nude NCRNU mice; settings: 5.0 mg/kg i.p. daily, 3 weeks; for Final Tumor Weight (V/Vo) ± SEM: T7 vehicle 5.626 ± 0.38, T8 vehicle 6.278 ± 1.483
Method: Male nude NCRNU mice, 5-6 weeks old, weighing approximately 25 grams, 6 were implanted with 2×10^6 PC3 cells into the dorsal subcutis. When the tumors were 60 mm^3, the animals were pair-matched into treatment and control groups. Each group contained 6-7 tumored mice, each of which was ear-tagged and followed individually throughout the experiment. Initial doses of peptide or vehicle control were given on the day of pair-matching (Day 0), and were administered via intraperitoneal (i.p.) injection at doses indicated. Mice were weighed weekly, and tumor measurements were taken by calipers weekly. These tumor measurements were converted to tumor volume by a well-known formula, (V=W^2×L/2), and mean tumor volumes were plotted against time. Mice were euthenized at the end of the treatment period. Upon termination, the mice were weighed, sacrificed and their tumors were excised. The mean tumor weight per group was calculated, and the value of mean treated tumor volume or volume ratio/mean control tumor volume or volume ratio×100 was subtracted from 100% to give the tumor growth inhibition (TG1) for each group. All groups received injections I.P. daily, except for two T8-treated groups, which were treated twice per week and once a week, respectively.

[3] = tested on: C-PAE cells; test: Cell attachment assay; type: cell-based, bovine; settings: for attachment of endothelial cells onto vitronectin-coated plates in the presence of peptide: 5 μg/ml
Method: (§1) The attachment of HUVECs to Tumstatin-coated plates in the presence of integrin subunits α1 through α6, β1, and αvβ3 integrin blocking antibody was examined. This assay was performed according to the method of Senger et al. (Senger, D. R. et al, 1997, Proc. Natl. Acad. Sci. USA 94:13612-7), with minor modification. 96-well plates were coated with either human Tumstatin, mouse laminin-1, or human Type IV collagen (Collaborative Biomedical Prods., Bedford, Mass., USA) at a concentration of 10 μg/ml overnight at 37° C. Vitronectin (Collaborative Biomed. Prods.) at a concentration of 0.5 μg/ml was then used to coat the plates. The remaining protein binding sites were blocked with 100 mg/ml of BSA (Sigma Chemical Co., St. Louis, Mo., USA) in PBS for 2 hours. HUVEC cells were grown to subconfluence (70-80%) in EGM-2 medium, gently trypsinized and resuspended in serum-free medium (1.5×10^5 cells/ml). The cells were mixed with 10 μg/ml of either mouse IgG, (control) (Life Technologies/Gibco BRL, Gaithersberg, Md., USA) or antibody (mouse monoclonal antibody to the human β1 integrin (clone P4C10) (Life Technologies/Gibco BRL); monoclonal antibody to human integrins α1 through α.6 (CHEMICON Int'l, Temecula, Calif., USA); αvβ3 integrin (clone LM609) (CHEMICON Int'l) and incubated for 15 minutes at room temperature, with gentle agitation. One hundred microliters of the cell suspension was then added to each well and incubated for 45 minutes at 37° C. Unattached cells were removed by washing, and the number of attached cells were counted after staining with methylene blue. C-PAE cells were used in separate experiments, following the above procedure.
To determine the attachment of C-PAE cells to plates coated with the Tumstatin deletion mutants, the cell attachment assay was performed as described above (see, e.g., Example 28). Rabbit antibody raised against Tum-4 was prepared as previously described (Kalluri et al., 1997, J. Clin. Invest. 99:2470-8). Goat anti-rabbit IgG antibody conjugated with horseradish peroxidase was purchased from Sigma Chemical Company (St. Louis, Mo., USA). […] Plates coated with Tum-1 (FIG. 36A) were also treated with anti-Tum-4 antibody (1:200 dilution) to block the previously reported (Shahan et al, 1999, Cancer Res. 59:4584-90) αvβ3 binding site, as well as the αvβ5 binding site.
(§2) Cell Attachment Activity: Cell attachment using endothelial cells was performed as described above. HUVEC or C-PAE cells were incubated with monoclonal anti-human integrin antibodies, control mouse IgG (10 μg/ml), or synthetic peptide, plated onto pre-coated 96-well plates, and the number of cells attaching to the plates was determined using measurement of methylene blue staining at OD655. […] CNGRC peptide was used as a control.
(§3) The cell attachment assay was performed as described above.
Tumstatin produced in 293 human embryonic kidney cells was used to coat tissue culture plates. […] PBS and BSA served as positive and negative controls, respectively.

[4] = tested on: C-PAE cells; test: Cell cycle analysis (propidium iodide, flow cytometry); type: cell-based, bovine
Method: To further evaluate the mechanism of T3 peptide on endothelial cell proliferation, the effect of T3 peptide on cell cycle progression was analyzed. In the growth arrested and contact inhibited cells (0 hour), 4.1% of cells were in S phase. […] This was true even at a maximal dosage of 100 μg/ml. The effect of the T3 peptide was dose-dependent, however, with the percentage of cells in S phase at 21.4% at 10 μg/ml, and 20.5% at 25 μg/ml. The percentage of cells in G0/G1 phase was 88.3% at 0 hour, 53.4% for the bFGF control, and 57.6%, 57.6% and 71.0% for treatments with T1, T6 and T3 peptide, respectively. […] Apoptotic Activity: Peptides T2, T3, T4, T5 and T6 (10 μg/ml concentration) were tested for their effect of viability of C-PAE cells using the MTT assay, as described in Examples 32 and 36 above. The results are shown in FIG. 43D, which is a histogram showing cell viability as measured at OD595 (y-axis), and treatments with the synthetic peptides (x-axis). […] TNF-α (100 ng/ml) was used to serve as a positive control in inducing endothelial cell apoptosis.
The effect of Tumstatin-44-131 and Tum-5-125-C-A on the cell cycle were assayed similarly to Example 4 above. Briefly, C-PAE cells were growth arrested by contact inhibition for 48 hours. The cells, at 10^5 cells per well, were then harvested and plated into a 12-well plate coated with fibronectin in 5% FCS and either recombinant Tumstatin-44-131 or Tum-5-125-C-A. After 21 hours, the cells were harvested and fixed in 70% ice-cold ethanol. The fixed cells were rehydrated a room temperature for 30 minutes in PBS containing 2% FCS and 0.1% Tween-20, centrifuged and resuspended in 0.5 ml of the same buffer. RNase (5 μg/ml) digestion was done at 37° C. for one hour, followed by staining with propidium iodide (5 μg/ml). The cells were then counted using an EPICS XL-MCL flow cytometer (Beckman-Coulter Instruments, Fullerton, Calif., USA).

[5] = tested on: HUVEC cells; test: Cell adhesion assay with integrin blocking antibodies; type: cell-based, human; settings: label = plate coating; 10 μg/ml antibody
Method: as §1, §2, §3

TMPFLFCNVNDVCNFASRNDYSYWL [T7]
EC50 ([1]; equimolar comparison, read-out: ED50, anti-proliferative effect): 1000 nM
% Tumor growth inhibition [2]: 66.8%
Final Tumor Weight (V/Vo) ± SEM [2]: 1.868 ± 0755

CNGRC (synthetic blocking peptide) [reference compound]
attachment of endothelial cells onto vitronectin-coated plates in the presence of peptide [3]: did not show such inhibition

NQRAHGQDLGTLGSCLQRFT (T2 (amino acids 53-72 of SEQ ID NO10))
inhibition of endothelial cell proliferation by synthetic peptides [1]: nor did it inhibit endothelial cell proliferation

DVCNFASRNDYSYWLSTPAL (T4 (amino acids 83-102 of SEQ ID NO10))
inhibition of endothelial cell proliferation by synthetic peptides [1]: no inhibitory activity

RALEPYISRCTVCEGPAIA (T6 (amino acids 113-131 of SEQ ID NO10))
binding to vitronectin-coated plates (2.5 μg/ml) in the presence of peptide ([3]; 0.1, 1.0, 10.0 μg/ml peptide): did not inhibit attachment
percentage of cells in S phase ([4]; bFGF 24 hours (control 22.1%), T1 or T6, maximal dosage of 100 μg/ml): 21.2%
percentage of cells in G0/G1 phase ([4]; bFGF control 53.4%): 57.6%

ANMSRNVFFDCTSFPVCQKFLNDTRNY (Scrambled peptide SP1) [reference compound]
% Tumor growth inhibition [2]: 31.7%
Final Tumor Weight (V/Vo) ± SEM [2]: 4.284 ± 1.244

CDCRGDCFC (synthetic blocking peptide) [reference compound]
attachment of endothelial cells onto vitronectin-coated plates in the presence of peptide [3]: inhibited attachment

laminin-1: mouse laminin-1, control plate coating [reference compound]
inhibition of HUVEC attachment to coated plates by α5 antibody [5]: 50%
inhibition of HUVEC attachment to coated plates by α6 antibody [5]: 89%

B1: vitronectin: control plate coating (protein)
chain: DQESCKGRCTEGFNVDKKCQCDELCSYYQSCCTDYTAECKPQVTRGDVFTMPEDEYTVYDDGEEKNNATVHEQVGGPSLTSDLQAQSKGNPEQTPVLKPEEEAPAPEVGASKPEGIDSRPETLHPGRPQPPAEEELCSGKPFDAFTDLKNGSLFAFRGQYCYELDEKAVRPGYPKLIRDVWGIEGPIDAAFTRINCQGKTYLFKGSQYWRFEDGVLDPDYPRNISDGFDGIPDNVDAALALPAHSYSGRERVYFFKGKQYWEYQFQHQPSQEECEGSSLSAVFEHFAMMQRDSWEDIFELLFWGRTSAGTRQPQFISRDWHGVPGQVDAAMAGRIYISGMAPRPSLAKKQRFRHRNRKGYRSQRGHSRGRNQNSRRPSRATWLSLFSSEESNLGANNYDDYRMDWLVPATCEPIQSVFFFSGDKYYRVNLRTRRVDTVDPPYPRSIAQYWLGCPAPGHL
inhibition of HUVEC attachment to coated plates by αvβ3 antibody [5]: 61%

B2: Tum-5: residues 54 to 132 of Tumstatin (SEQ ID NO:26) (protein)
chain: QRAHGQDLGTLGSCLQRFTTMPFLFCNVNDVCNFASRNDYSYWLSTPALMPMNMAPITGRALEPYISRCTVCEGPAIAI
modifications: Tum-5 (amino acids 54-132 of SEQ ID NO10)
inhibition of HUVEC attachment to coated plates by αvβ3 antibody [5]: significantly inhibited
attachment to coated plates in the presence of RGD peptide ([…]) ([3]; label = plate coating): not inhibited
